# Test results from patent US20230144436A1, “MUSCLE TARGETING COMPLEXES AND USES THEREOF FOR TREATING MYOTONIC DYSTROPHY” (Dyne Therapeutics, Inc., priority 2020, published 2023).
# System: DMPK
# Experiment: DMPK knockdown by transfected antisense oligonucleotides in DM1 C15 myotubes at 0.5 nM and 50 nM
# Format: cell-based
# Details: 72 hours; for Normalized DMPK Remaining: relative to vehicle control = 1.00
# How it was run: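 Seven-day-differentiated DM1 C15 myotubes transfected (Lipofectamine MessengerMax) with each oligonucleotide at 0.5 nM or 50 nM final, biological triplicates. After 72 h, DMPK mRNA quantified by qPCR, expressed relative to vehicle-only transfection set to 1.00.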
# [1] = 0.5 nM oligonucleotide, qPCR, relative to vehicle control
# [2] = 50 nM oligonucleotide, qPCR, relative to vehicle control
Substance,Percent DMPK Reduction [1],"Normalized DMPK Remaining (0.5 nM oligonucleotide, qPCR)",Percent DMPK Reduction [2],"Normalized DMPK Remaining (50 nM oligonucleotide, qPCR)",Percent DMPK Reduction (0.5 nM oligonucleotide),Normalized DMPK Remaining (0.5 nM oligonucleotide),Percent DMPK Reduction (50 nM oligonucleotide),Normalized DMPK Remaining (50 nM oligonucleotide)
372 (UGGCCAUGACAAUCUCCGCC; chemistry not given here) [compound 372],30.46%,0.70,72.55%,0.27,–,–,–,–
373 (GGGACAGACAAUAAAUACCG; chemistry not given here) [compound 373],27.19%,0.73,50.50%,0.49,–,–,–,–
374 (CCGCUCCCCAAACUUGCUCA; chemistry not given here) [compound 374],0.28%,1.00,56.82%,0.43,–,–,–,–
375 (CGGCUCAGGCUCUGCCGGGU; chemistry not given here) [compound 375],17.97%,0.82,69.03%,0.31,–,–,–,–
376 (GGCUCCUGGGCGGCGCCAGA; chemistry not given here) [compound 376],0.05%,1.00,96.23%,0.04,–,–,–,–
377 (UUUCCCGAGUAAGCAGGCAG; chemistry not given here) [compound 377],–,–,–,–,20.69%,0.79,44.89%,0.55
378 (GGAUGUUGUCGGGUUUGAUG; chemistry not given here) [compound 378],–,–,–,–,4.26%,0.96,40.81%,0.59
379 (CAGGUAGUUCUCAUCCUGGA; chemistry not given here) [compound 379],–,–,–,–,25.92%,0.74,76.71%,0.23
380 (UGCCCAUAGAACAUUUCAUA; chemistry not given here) [compound 380],–,–,–,–,7.67%,0.92,34.56%,0.65
381 (UAGUUCUCAUCCUGGAAGGC; chemistry not given here) [compound 381],–,–,–,–,16.83%,0.83,43.88%,0.56
382 (AUGUCCCUGUGCACGUAGCC; chemistry not given here) [compound 382],–,–,–,–,16.78%,0.83,49.29%,0.51
383 (CGGGCCCGGAUCACAGGACU; chemistry not given here) [compound 383],–,–,–,–,17.45%,0.83,67.11%,0.33
384 (UGGACGAUCUUGCCAUAGGU; chemistry not given here) [compound 384],–,–,–,–,19.20%,0.81,42.52%,0.57
385 (GUUGGCCGGCGUGGGCCACC; chemistry not given here) [compound 385],–,–,–,–,-1.82%,1.02,43.57%,0.56
386 (CUCAGUGCAUCCAAAACGUG; chemistry not given here) [compound 386],–,–,–,–,7.65%,0.92,54.26%,0.46
387 (UCGAAGUUGCAUGUGUCGGU; chemistry not given here) [compound 387],–,–,–,–,22.96%,0.77,58.15%,0.42
388 (UGGAACACGGACGGCCCGGC; chemistry not given here) [compound 388],–,–,–,–,-1.90%,1.02,60.96%,0.39
389 (CCGAGAGCAGCGCAAGUGAG; chemistry not given here) [compound 389],–,–,–,–,16.13%,0.84,40.93%,0.59
390 (UCCUGCAACUGCCGGACGUG; chemistry not given here) [compound 390],–,–,–,–,16.06%,0.84,44.61%,0.55
391 (UCACCAACACGUCCCUCUCC; chemistry not given here) [compound 391],–,–,–,–,47.12%,0.53,84.09%,0.16

Substance,Percent DMPK Reduction [1],"Normalized DMPK Remaining (0.5 nM oligonucleotide, qPCR)",Percent DMPK Reduction [2],"Normalized DMPK Remaining (50 nM oligonucleotide, qPCR)",Percent DMPK Reduction (0.5 nM oligonucleotide),Normalized DMPK Remaining (0.5 nM oligonucleotide),Percent DMPK Reduction (50 nM oligonucleotide),Normalized DMPK Remaining (50 nM oligonucleotide)
392 (UGCCUGCAGCAACUCCAUCC; chemistry not given here) [compound 392],–,–,–,–,13.99%,0.86,49.75%,0.50
393 (UUGGCCGGCGUGGGCCACCA; chemistry not given here) [compound 393],–,–,–,–,-3.19%,1.03,44.37%,0.56
394 (GAGCCUCUGCCUCGCGUAGU; chemistry not given here) [compound 394],–,–,–,–,18.77%,0.81,77.78%,0.22
395 (AAGGGCGUCUGCCCAUAGAA; chemistry not given here) [compound 395],–,–,–,–,13.15%,0.87,34.56%,0.65
396 (ACAGACAAUAAAUACCGAGG; chemistry not given here) [compound 396],–,–,–,–,-3.95%,1.04,74.02%,0.26
397 (GGACAGACAAUAAAUACCGA; chemistry not given here) [compound 397],–,–,–,–,22.57%,0.77,52.51%,0.47
398 (ACGUGUGCCUCUAGGUCCCG; chemistry not given here) [compound 398],–,–,–,–,16.47%,0.84,77.73%,0.22
399 (GGCACGAGACAGAACAACGG; chemistry not given here) [compound 399],–,–,–,–,16.10%,0.84,68.01%,0.32
400 (UGACCAGGUACAGGUAGUUC; chemistry not given here) [compound 400],–,–,–,–,22.00%,0.78,63.73%,0.36
401 (CUCUGCCGGGUGAGCACCUC; chemistry not given here) [compound 401],–,–,–,–,25.25%,0.75,74.36%,0.26
402 (GACAAUCUCCGCCAGGUAGA; chemistry not given here) [compound 402],–,–,–,–,23.70%,0.76,49.82%,0.50
403 (UCUCCGCCAGGUAGAAGCGC; chemistry not given here) [compound 403],–,–,–,–,19.59%,0.80,66.52%,0.33
404 (CUCUGCCUCGCGUAGUUGAC; chemistry not given here) [compound 404],–,–,–,–,16.61%,0.83,91.21%,0.09
405 (CUUUGGGCAGAUGGAGGGCC; chemistry not given here) [compound 405],–,–,–,–,28.06%,0.72,67.50%,0.33
406 (ACAGGUAGUUCUCAUCCUGG; chemistry not given here) [compound 406],–,–,–,–,20.51%,0.79,85.36%,0.15
407 (CCAAACUUGCTCAGCAGUGU; chemistry not given here) [compound 407],–,–,–,–,23.64%,0.76,57.70%,0.42
408 (UCGGGUUUGAUGUCCCUGUG; chemistry not given here) [compound 408],–,–,–,–,22.49%,0.78,57.16%,0.43
409 (GGCUUGCUGCCUUCCCAGGC; chemistry not given here) [compound 409],–,–,–,–,-6.32%,1.06,48.15%,0.52
410 (UACAGGUAGUUCUCAUCCUG; chemistry not given here) [compound 410],–,–,–,–,19.83%,0.80,72.51%,0.27
